# Laboratory results reported in ChEMBL document CHEMBL1201862, “PubChem BioAssay data set” (2004).
#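 All cell lines were grown in 96-well plates and treated with compound for 48 hours. Abbreviation: GI50, concentration required for 50% inhibition of growth.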 Activity calls are given as the source filed them. No stated cut-off is given here; in the data, active = GI50 up to about 1.1 µM and inactive = higher.
# Key:
# Assay in all cases: NCI anticancer screen, dose series, 48 h
# 786-0 = tested on: 786-0
# A498 = tested on: A498
# A549 = tested on: A549
# ACHN = tested on: ACHN
# CCRF-CEM = tested on: CCRF-CEM
# COLO 205 = tested on: COLO 205
# DLD-1 = tested on: DLD-1
# DMS-273 = tested on: DMS-273
# EKVX = tested on: EKVX
# HCT-116 = tested on: HCT-116
# HCT-15 = tested on: HCT-15
# HL-60 = tested on: HL-60
# HOP-18 = tested on: HOP-18
# HOP-62 = tested on: HOP-62
# HT-29 = tested on: HT-29
# IGROV-1 = tested on: IGROV-1
# K562 = tested on: K562
# KM-20L2 = tested on: KM-20L2
# KM12 = tested on: KM12
# LOX IMVI = tested on: LOX IMVI
# LXFL 529 = tested on: LXFL 529
# M19-MEL = tested on: M19-MEL
# MOLT-4 = tested on: MOLT-4
# Malme-3M = tested on: Malme-3M
# NCI-H23 = tested on: NCI-H23
# NCI-H460 = tested on: NCI-H460
# NCI-H522 = tested on: NCI-H522
# OVCAR-3 = tested on: OVCAR-3
# OVCAR-4 = tested on: OVCAR-4
# OVCAR-5 = tested on: OVCAR-5
# OVCAR-8 = tested on: OVCAR-8
# RPMI-8226 = tested on: RPMI-8226
# RXF 393 = tested on: RXF 393
# RXF 631 = tested on: RXF 631
# SF-268 = tested on: SF-268
# SF-295 = tested on: SF-295
# SF-539 = tested on: SF-539
# SK-MEL-28 = tested on: SK-MEL-28
# SK-MEL-2 = tested on: SK-MEL-2
# SK-OV-3 = tested on: SK-OV-3
# SN12C = tested on: SN12C
# SNB-19 = tested on: SNB-19
# SNB-75 = tested on: SNB-75
# SNB-78 = tested on: SNB-78
# SW-620 = tested on: SW-620
# TK-10 = tested on: TK-10
# U-251 = tested on: U-251
# UACC-257 = tested on: UACC-257
# UACC-62 = tested on: UACC-62
# UO-31 = tested on: UO-31
# CAKI-1 = tested on: CAKI-1
# DMS-114 = tested on: DMS-114
# HCC 2998 = tested on: HCC 2998
# HOP-92 = tested on: HOP-92
# M14 = tested on: M14
# NCI-H226 = tested on: NCI-H226
# SK-MEL-5 = tested on: SK-MEL-5
# XF498 = tested on: XF498
smiles,measurement,setting,value
C#CCNC(=O)ON1C(=O)CCC1=O,GI50,786-0,> 100 µM (inactive)
same,GI50,A498,> 100 µM (inactive)
same,GI50,A549,> 100 µM (inactive)
same,GI50,ACHN,> 100 µM (inactive)
same,GI50,CCRF-CEM,> 100 µM (inactive)
same,GI50,COLO 205,> 100 µM (inactive)
same,GI50,DLD-1,> 100 µM (inactive)
same,GI50,DMS-273,> 100 µM (inactive)
same,GI50,EKVX,> 100 µM (inactive)
same,GI50,HCT-116,> 100 µM (inactive)
same,GI50,HCT-15,> 100 µM
same,GI50,HL-60,> 100 µM (inactive)
same,GI50,HOP-18,> 100 µM (inactive)
same,GI50,HOP-62,> 100 µM (inactive)
same,GI50,HT-29,> 100 µM (inactive)
same,GI50,IGROV-1,> 100 µM (inactive)
same,GI50,K562,> 100 µM (inactive)
same,GI50,KM-20L2,> 100 µM (inactive)
same,GI50,KM12,> 100 µM (inactive)
same,GI50,LOX IMVI,> 100 µM (inactive)
same,GI50,LXFL 529,> 100 µM (inactive)
same,GI50,M19-MEL,> 100 µM (inactive)
same,GI50,MOLT-4,> 100 µM (inactive)
same,GI50,Malme-3M,> 100 µM (inactive)
same,GI50,NCI-H23,> 100 µM (inactive)
same,GI50,NCI-H460,> 100 µM (inactive)
same,GI50,NCI-H522,> 100 µM (inactive)
same,GI50,OVCAR-3,> 100 µM (inactive)
same,GI50,OVCAR-4,> 100 µM (inactive)
same,GI50,OVCAR-5,> 100 µM (inactive)
same,GI50,OVCAR-8,> 100 µM (inactive)
same,GI50,RPMI-8226,> 100 µM (inactive)
same,GI50,RXF 393,> 100 µM (inactive)
same,GI50,RXF 631,> 100 µM (inactive)
same,GI50,SF-268,> 100 µM (inactive)
same,GI50,SF-295,> 100 µM (inactive)
same,GI50,SF-539,> 100 µM (inactive)
same,GI50,SK-MEL-28,> 100 µM (inactive)
same,GI50,SK-MEL-2,> 100 µM (inactive)
same,GI50,SK-OV-3,> 100 µM (inactive)
same,GI50,SN12C,> 100 µM (inactive)
same,GI50,SNB-19,> 100 µM (inactive)
same,GI50,SNB-75,> 100 µM (inactive)
same,GI50,SNB-78,> 100 µM (inactive)
same,GI50,SW-620,> 100 µM (inactive)
same,GI50,TK-10,> 100 µM (inactive)
same,GI50,U-251,> 100 µM (inactive)
same,GI50,UACC-257,> 100 µM (inactive)
same,GI50,UACC-62,> 100 µM (inactive)
same,GI50,UO-31,> 100 µM (inactive)
O=C(CC1(O)C(=O)Nc2ccccc21)c1ccc2ccccc2c1 (centres undefined),GI50,786-0,> 100 µM (inactive)
same,GI50,A498,> 100 µM (inactive)
same,GI50,A549,> 100 µM (inactive)
same,GI50,ACHN,> 100 µM (inactive)
same,GI50,CAKI-1,> 100 µM (inactive)
same,GI50,COLO 205,> 100 µM (inactive)
same,GI50,DLD-1,> 100 µM (inactive)
same,GI50,DMS-114,> 100 µM (inactive)
same,GI50,DMS-273,> 100 µM (inactive)
same,GI50,EKVX,> 100 µM (inactive)
same,GI50,HCC 2998,> 100 µM (inactive)
same,GI50,HCT-116,> 100 µM (inactive)
same,GI50,HCT-15,> 100 µM
same,GI50,HL-60,> 100 µM (inactive)
same,GI50,HOP-62,> 100 µM (inactive)
same,GI50,HOP-92,> 100 µM (inactive)
same,GI50,HT-29,> 100 µM (inactive)
same,GI50,IGROV-1,> 100 µM (inactive)
same,GI50,K562,> 100 µM (inactive)
same,GI50,KM-20L2,> 100 µM (inactive)
same,GI50,LOX IMVI,> 100 µM (inactive)
same,GI50,LXFL 529,> 100 µM (inactive)
same,GI50,M14,> 100 µM (inactive)
same,GI50,M19-MEL,> 100 µM (inactive)
same,GI50,MOLT-4,> 100 µM (inactive)
same,GI50,Malme-3M,> 100 µM (inactive)
same,GI50,NCI-H226,29.2 µM (inactive)
same,GI50,NCI-H23,> 100 µM (inactive)
same,GI50,NCI-H460,> 100 µM (inactive)
same,GI50,NCI-H522,99.5 µM (inactive)
same,GI50,OVCAR-3,> 100 µM (inactive)
same,GI50,OVCAR-4,> 100 µM (inactive)
same,GI50,OVCAR-5,> 100 µM (inactive)
same,GI50,OVCAR-8,> 100 µM (inactive)
same,GI50,RPMI-8226,> 100 µM (inactive)
same,GI50,RXF 393,> 100 µM (inactive)
same,GI50,RXF 631,> 100 µM (inactive)
same,GI50,SF-268,> 100 µM (inactive)
same,GI50,SF-295,> 100 µM (inactive)
same,GI50,SF-539,> 100 µM (inactive)
same,GI50,SK-MEL-28,> 100 µM (inactive)
same,GI50,SK-MEL-2,> 100 µM (inactive)
same,GI50,SK-MEL-5,> 100 µM (inactive)
same,GI50,SK-OV-3,> 100 µM (inactive)
same,GI50,SN12C,> 100 µM (inactive)
same,GI50,SNB-19,> 100 µM (inactive)
same,GI50,SNB-75,78 µM (inactive)
same,GI50,SNB-78,> 100 µM (inactive)
same,GI50,SW-620,> 100 µM (inactive)
same,GI50,TK-10,> 100 µM (inactive)
same,GI50,UACC-257,> 100 µM (inactive)
same,GI50,UACC-62,> 100 µM (inactive)
same,GI50,UO-31,44.7 µM (inactive)
same,GI50,XF498,93.8 µM (inactive)
